One series deals with TNF-α. In words: Bovine whole blood assay, LPS-induced TNF-α. The series is classed as cell-based. The conditions noted are these: Bos taurus, fresh whole bovine blood, LPS 1 μg/mL. As for the experimental part: (§1) (protected from light) for 30 minutes.
In series [1] the test system is BRD pathogens, M. haemolytica and P. multocida. In words: MIC screening panel, BRD pathogens (CLSI broth micro-dilution). The following applies: read-out: MIC flag (*) at Ex #. (In general: In broth dilution the organism is exposed to a series of concentrations in liquid medium.)
The subject of another series is IL-6. Description: Bovine whole blood assay, IL-6. The format is cell-based. The conditions noted are these: Bos taurus, fresh whole bovine blood, LPS 1 μg/mL. The protocol:
as §1

A further series relates to IL-1β. In words: Bovine whole blood assay, IL-1β.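 Also: compound concentration at which rising IL-1β release signals cytotoxicity.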 The format is cell-based. The conditions noted are these: overstimulation of IL-1β, perceived cellular toxicity concentration. The protocol:
as §1

The next series concerns P. multocida 46572. Description: In vivo mouse lung infection challenge model (murine efficacy). The following applies: for % Survival: 20 mg/kg subcutaneous, harmonized survival relative to vehicle and M9 controls, study ended Day 10. The protocol: The challenge organism was P. multocida 46572. Target challenge concentration was 5×10^2 CFU/mouse. Isolated colonies from overnight growth (37° C. with 5% CO2) on trypticase soy agar (TSA II) blood plates were transferred to room temperature Brain Heart Infusion Broth (BHIB). The broth culture was incubated 3.5-4 hours to approximately mid-log phase of growth, as measured by forward light scatter at 600 nm (OD600, 0.200). The culture was centrifuged to collect the bacterial pellet. The pellet was re-suspended in BHIB and adjusted to provide an approximate concentration of 2.7 log^10 colony forming units (CFU) in 0.04 mL at the highest concentration. The challenge inoculum concentration was confirmed by serial dilutions of the inoculum for CFU enumeration. On Day −5, CD-1 female mice were received. Mice were given standard rodent diet and water ad libitum. On Day 0, bacterial inoculum (0.04 mL) was administered to each mouse (n=36) intranasally. Compounds of the invention were dosed at 20 mg/kg (0.1 mL) in a buffered (˜pH 5.4) propylene glycol, monothioglycerol and water solution by subcutaneous injection. Animals were observed from Days 1-10. The study was terminated on Day 10. In addition, some treatment groups were sampled at 6, 24, and 48 hours post bacterial challenge for RNA sequence analysis of lung tissue.
The murine efficacy model (P. multocida challenge) was optimized, and the treatment group size was powered to be able to observe statistically significant improvement of survival to expected ranges for immunomodulatory compounds. The experimental design was a randomized complete block design. Mice were individually identified and treatment groups comingled within a cage, with every treatment group equally represented across cages. Mortality was the primary variable. Mortality data was analyzed using a generalized mixed model with fixed effect of treatment and random effect of block. Survival time was also analyzed using the SAS PHREG (survival analysis) procedure to examine whether there were significant differences between treatment groups and the control group. Numerous compounds of the invention and M9 (positive control) were tested in this model at a dose of 20 mg/kg (Table 3). Typical percent survival for no treatment control is in the range of 0-20% based on study to study variation in challenge inoculum and rate of infection. […] Mouse survival for M9 was about 90-100%, further supporting its residual antibacterial properties against the bacterial strain. Harmonized survival accounts for % survival relative to vehicle (“−” control) and M9 (“+” control)) survival data (Table 3).

A further series concerns M. haemolytica. Description: MIC, M. haemolytica. The following applies: Mannheimia haemolytica.
Another series concerns S. aureus. In words: MIC, S. aureus. The following applies: Staphylococcus aureus.
Another series relates to E. coli. Description: MIC, E. coli. The following applies: Escherichia coli.
The subject of another series is P. multocida. Description: MIC, P. multocida. The conditions noted are these: Pasteurella multocida.
[2] abbreviates: M. haemolytica 46571, bovine efficacy challenge strain.
[3] abbreviates: P. multocida 46572, murine efficacy challenge strain.

SMILES strings stand for the structures.

7 compounds from patent publication US12390440B2, “Immunomodulating trifluoromethyl-aminal azalides” (Zoetis Services LLC, priority 2020, dated 2025) can be followed below.

For orientation: IC50 means the concentration that gives 50% inhibition. A word on the MIC: it is the lowest concentration that inhibits growth of the organism. In the case of `CCCNC[C@]1(O)[C@H](C)O[C@@H](O[C@H]2[C@H](C)[C@@H](O[C@@H]3O[C@H](C)C[C@H]4[C@H]3OC(C(F)(F)F)N4Cc3ccccc3)[C@](C)(O)C[C@@H](C)CN[C@H](C)[C@@H](O)[C@](C)(O)[C@@H](CC)OC(=O)[C@@H]2C)C[C@@]1(C)OC` (stereo partly drawn) [Example A-28, (2R,3S,4R,5R,8R,10R,11R,12S,13S,14R)-11-(((3aR,4S,6R,7aS)-1-benzyl-6-methyl-2-(trifluoromethyl)hexahydro-2H-pyrano[4,3-d]oxazol-4-yl)oxy)-2-ethyl-3,4,10-trihydroxy-13-(((2R,4R,5S,6S)-5-hydroxy-4-methoxy-4,6-dimethyl-5-((propylamino)methyl)tetrahydro-2H-pyran-2-yl)oxy)-3,5,8,10,12,14-hexamethyl-1-oxa-6-azacyclopentadecan-15-one], the values for the IC50 with TNF-α and in the series with IL-6 were 8 µM and 12 µM, respectively. Further, the MIC in series [1] was less than 64 µg/mL. Also, the “IL-1β OS of LPS” value in the series with IL-1β was more than 250 µM.

Turning to `CC[C@H]1OC(=O)[C@H](C)[C@@H](O[C@H]2C[C@@](C)(OC)[C@](O)(CNCCOC)[C@H](C)O2)[C@H](C)[C@@H](O[C@@H]2O[C@H](C)C[C@H]3[C@H]2OC(C(F)(F)F)N3C)[C@](C)(O)C[C@@H](C)CN[C@H](C)[C@@H](O)[C@]1(C)O` (stereo partly drawn) [Example A-2, (2R,3S,4R,5R,8R,10R,11R,12S,13S,14R)-11-(((3aR,4S,6R,7aS)-1,6-dimethyl-2-(trifluoromethyl)hexahydro-2H-pyrano[4,3-d]oxazol-4-yl)oxy)-2-ethyl-3,4,10-trihydroxy-13-(((2R,4R,5S,6S)-5-hydroxy-4-methoxy-5-(((2-methoxyethyl)amino)methyl)-4,6-dimethyltetrahydro-2H-pyran-2-yl)oxy)-3,5,8,10,12,14-hexamethyl-1-oxa-6-azacyclopentadecan-15-one], the “% Survival” value in the series on P. multocida 46572 came to 18%.

`CCCNC[C@]1(O)[C@H](C)O[C@@H](O[C@H]2[C@H](C)[C@@H](O[C@@H]3O[C@H](C)C[C@H]4[C@H]3OC(C(F)(F)F)N4CC(C)C)[C@](C)(O)C[C@@H](C)CN[C@H](C)[C@@H](O)[C@](C)(O)[C@@H](CC)OC(=O)[C@@H]2C)C[C@@]1(C)OC` (stereo partly drawn) [Example A-27, (2R,3S,4R,5R,8R,10R,11R,12S,13S,14R)-2-ethyl-3,4,10-trihydroxy-13-(((2R,4R,5S,6S)-5-hydroxy-4-methoxy-4,6-dimethyl-5-((propylamino)methyl)tetrahydro-2H-pyran-2-yl)oxy)-11-(((3aR,4S,6R,7aS)-1-isobutyl-6-methyl-2-(trifluoromethyl)hexahydro-2H-pyrano[4,3-d]oxazol-4-yl)oxy)-3,5,8,10,12,14-hexamethyl-1-oxa-6-azacyclopentadecan-15-one]: the IC50 in the series with TNF-α is 3 µM; in the series on IL-6, 1 µM. Besides, the minimum inhibitory concentration (MIC) in series [1] was less than 64 µg/mL. Further, in the series with IL-1β, the “IL-1β OS of LPS” value amounted to 2 µM.

As to `CC[C@H]1OC(=O)[C@H](C)[C@@H](O[C@H]2C[C@@](C)(OC)[C@](O)(CN3CCOCC3)[C@H](C)O2)[C@H](C)[C@@H](O[C@@H]2O[C@H](C)C[C@H]3[C@H]2OC(C(F)(F)F)N3C)[C@](C)(O)C[C@@H](C)CN[C@H](C)[C@@H](O)[C@]1(C)O` (stereo partly drawn) [Example B-1, (2R,3S,4R,5R,8R,10R,11R,12S,13S,14R)-11-(((3aR,4S,6R,7aS)-1,6-dimethyl-2-(trifluoromethyl)hexahydro-2H-pyrano[4,3-d]oxazol-4-yl)oxy)-2-ethyl-3,4,10-trihydroxy-13-(((2R,4R,5S,6S)-5-hydroxy-4-methoxy-4,6-dimethyl-5-(morpholinomethyl)tetrahydro-2H-pyran-2-yl)oxy)-3,5,8,10,12,14-hexamethyl-1-oxa-6-azacyclopentadecan-15-one], the IC50 in the series with TNF-α was determined as 10 µM. Moreover, the MIC against M. haemolytica (M. haemolytica 12726), with M. haemolytica (M. haemolytica 33396), against M. haemolytica (setting [2]), in the series with S. aureus, against E. coli (E. coli 25922) and against E. coli (E. coli W3110) was more than 64 µg/mL each time. Moreover, the minimal inhibitory concentration (MIC) against P. multocida (P. multocida 43137) and against P. multocida (setting [3]) was more than 64 µg/mL throughout. Further, the “IL-1β OS of LPS” value in the series with IL-1β turned out to be 13 µM.

`CC[C@H]1OC(=O)[C@H](C)[C@@H](O[C@H]2C[C@@](C)(OC)[C@](O)(CNCCN3CCCC3=O)[C@H](C)O2)[C@H](C)[C@@H](O[C@@H]2O[C@H](C)C[C@H]3[C@H]2OC(C(F)(F)F)N3C)[C@](C)(O)C[C@@H](C)CN[C@H](C)[C@@H](O)[C@]1(C)O` (stereo partly drawn) [Example A-12, (2R,3S,4R,5R,8R,10R,11R,12S,13S,14R)-11-(((3aR,4S,6R,7aS)-1,6-dimethyl-2-(trifluoromethyl)hexahydro-2H-pyrano[4,3-d]oxazol-4-yl)oxy)-2-ethyl-3,4,10-trihydroxy-13-(((2R,4R,5S,6S)-5-hydroxy-4-methoxy-4,6-dimethyl-5-(((2-(2-oxopyrrolidin-1-yl)ethyl)amino)methyl)tetrahydro-2H-pyran-2-yl)oxy)-3,5,8,10,12,14-hexamethyl-1-oxa-6-azacyclopentadecan-15-one]: the IC50 in the series on TNF-α came out at 45 µM; in the series on IL-6 it was 24 µM. Moreover, the minimum inhibitory concentration (MIC) against M. haemolytica (M. haemolytica 12726), against M. haemolytica (M. haemolytica 33396), with M. haemolytica (setting [2]), against S. aureus, with E. coli (E. coli 25922) and in the series with E. coli (E. coli W3110) was more than 64 µg/mL throughout. In addition, the MIC against P. multocida (P. multocida 43137) and with P. multocida (setting [3]) was more than 64 µg/mL each time. Also, in the series with IL-1β, the “IL-1β OS of LPS” value worked out at 40 µM.

In the series on TNF-α, `CC[C@H]1OC(=O)[C@H](C)[C@@H](O[C@H]2C[C@@](C)(OC)[C@](O)(CN3CCN(C)CC3)[C@H](C)O2)[C@H](C)[C@@H](O[C@@H]2O[C@H](C)C[C@H]3[C@H]2OC(C(F)(F)F)N3C)[C@](C)(O)C[C@@H](C)CN[C@H](C)[C@@H](O)[C@]1(C)O` (stereo partly drawn) [Example B-2, (2R,3S,4R,5R,8R,10R,11R,12S,13S,14R)-11-(((3aR,4S,6R,7aS)-1,6-dimethyl-2-(trifluoromethyl)hexahydro-2H-pyrano[4,3-d]oxazol-4-yl)oxy)-2-ethyl-3,4,10-trihydroxy-13-(((2R,4R,5S,6S)-5-hydroxy-4-methoxy-4,6-dimethyl-5-((4-methylpiperazin-1-yl)methyl)tetrahydro-2H-pyran-2-yl)oxy)-3,5,8,10,12,14-hexamethyl-1-oxa-6-azacyclopentadecan-15-one] had a concentration for half-maximal inhibition (IC50) of 5 µM. For the same compound, in the series on P. multocida 46572, the “% Survival” value was determined as 47%. In addition, the “clinical efficacy in P. multocida infection in mice” value with P. multocida 46572 (mouse, in vivo) is “clinically efficacious”. Further, the “IL-1β OS of LPS” value in the series with IL-1β was 5 µM.

Regarding `CC[C@H]1OC(=O)[C@H](C)[C@@H](O[C@H]2C[C@@](C)(OC)[C@](O)(CNC3CCC3)[C@H](C)O2)[C@H](C)[C@@H](O[C@@H]2O[C@H](C)C[C@H]3[C@H]2OC(C(F)(F)F)N3C)[C@](C)(O)C[C@@H](C)CN[C@H](C)[C@@H](O)[C@]1(C)O` (stereo partly drawn) [Example A-7, (2R,3S,4R,5R,8R,10R,11R,12S,13S,14R)-13-(((2R,4R,5S,6S)-5-((cyclobutylamino)methyl)-5-hydroxy-4-methoxy-4,6-dimethyltetrahydro-2H-pyran-2-yl)oxy)-11-(((3aR,4S,6R,7aS)-1,6-dimethyl-2-(trifluoromethyl)hexahydro-2H-pyrano[4,3-d]oxazol-4-yl)oxy)-2-ethyl-3,4,10-trihydroxy-3,5,8,10,12,14-hexamethyl-1-oxa-6-azacyclopentadecan-15-one], the MIC in the series on M. haemolytica (M. haemolytica 12726), with M. haemolytica (M. haemolytica 33396), in the series on M. haemolytica (setting [2]), against S. aureus, against E. coli (E. coli 25922) and against E. coli (E. coli W3110) was more than 64 µg/mL in each case. Further, the MIC with P. multocida (P. multocida 43137) and in the series with P. multocida (setting [3]) was more than 64 µg/mL each time.
